Like-named read-outs stand apart in the source and are kept apart here.

For series [1], the system named is rat lungs. The conditions noted are these: apparent first-order pulmonary absorption rate constant in rats in vivo, cited from earlier work.
The conditions of series [2]: Table I panel of test compounds; source not stated; cited from earlier work.
For series [3], the system named is isolated perfused rat lungs. In words: in vitro. Here is the method:
(§1) Eight-week old male Wistar rats were obtained from Harlan UK Ltd. (Oxon, Oxfordshire). They were fed with a SDS RM1(E) maintenance diet (Special Diets Services Ltd., Essex). They were maintained at 20–21°C and 45–60% humidity with a 12 h light/dark cycle. All procedures performed on these animals were in accordance with regulations and established guidelines and were reviewed and approved by an Institutional Animal Care and Use Committee or through an ethical review process.
(§2) Rats were sacrificed with a lethal injection of pentobarbital (130 mg/kg body weight). As soon as they were unconscious, rats were secured in a supine position on a board inclined at approximately 45°. A midline incision was made from the neck to the abdomen using a scalpel blade and the rat was exsanguinated by severing the main abdominal vessels. The trachea was exposed and carefully pierced through one wall with a 21 G needle. A 3 cm long cannula made of a polyethylene tubing (PolyE 240, Harvard Apparatus Ltd., Edenbridge, UK) mounted on a blunt 21 G needle was introduced into the trachea. This was securely tied with two suture threads (Silk black braid USP size 4.0, Harvard apparatus Ltd) and a 25 mm Dieffenbach’s bulldog artery clip (Scientific Laboratory Supplies Ltd., Nottingham, UK). The diaphragm was cut open, 0.5 mL of air was administered to the lungs to partly re-inflate them and the rib cage was laterally incised with scissors taking care not to damage the lung tissue.
(§3) After the thymus was removed, the heart was twisted slightly to expose the pulmonary artery and then stretched down using a Halstead’s artery clamp (Scientific Laboratory Supplies). An incision was made and the pulmonary artery was cannulated using a cannula similar to the tracheal one. This was secured with a micro aneurysm clip (Harvard apparatus Ltd). Lungs were perfused using a single pass constant flow rate of 8 mL/min. […] The pericardium was dissected free to allow free efflux of the perfusate and lungs were inflated manually with 1.5 mL air using a 10 mL syringe connected to the intratracheal cannula. As soon as the tissue blanched, the lungs were removed carefully from the chest cavity while maintaining the perfusion and a semi micro Rexaloy clamp (Fisher Scientific, Loughborough, UK) was used to suspend the lungs vertically above a funnel and beaker.
(§4) After isolation, the lungs were allowed to stabilize for 1–2 min. The syringe attached to the intratracheal cannula was then disconnected and 100 μL of the test solutions were instilled into the airways using a Hamilton microsyringe. Lungs were re-inflated with 1.5 mL of air and sampling was performed by collecting the effluent solution dripping from the left atrium at different time intervals for 90 min. Lung viability was assessed by visual inspection for any sign of oedema as well as by the profile of mannitol airway to perfusate transfer.
(§5) The cumulative percentage of drug transferred from the airways to the perfusate in 90 min was calculated as the fraction of the administered dose recovered in the perfusate. […] The apparent first-order absorption rate constant (KaIPL) was calculated as follows: KaIPL=ln2/t1/2abs
(§6) Absorption data were collected using 4 or 5 IPL preparations.

The nature of series [4]: in vitro. To be noted: male, Wistar, rat, pH 7.4. Here is the method:
as §1, §2, §3, §4, §5, §6

The nature of series [5]: Absorptive (A to B) permeability in Calu-3 cell layers. The conditions noted are these: human.
The nature of series [6]: in vitro. To be noted: human, pH 7.4.
The nature of series [7]: Absorptive (A to B) permeability in normal human bronchial epithelial (NHBE) cell layers. The series is classed as in vitro ADME. The conditions noted are these: human, apical to basolateral, 10 μM, pH 7.4, 2 h, mean ± SD (n = 3, n = 18 for mannitol). How it is done: (§7) NHBE were cultured in a cell culture flask using the BEGM bullet kit provided by the supplier until reaching 70–80% confluence. […] After 24 h, cells were cultured at an air interface. Cell layers were used for transport studies after 14 d in culture.

For series [8], the system named is 16HBE14o- cell layers. To be noted: pH 7.4.
The subject of series [9] is Calu-3 cell layers. In words: Absorptive (A to B) permeability in Calu-3 cell layers. The conditions noted are these: Calu-3, apical to basolateral, 10 μM, pH 7.4, 2 h; mean ± SEM (n = 6, n = 36 for mannitol).
For series [10], the system named is NHBE cell layers. Description: Absorptive (A to B) permeability in normal human bronchial epithelial (NHBE) cell layers. Type of series: in vitro ADME. Here is the method:
as §7

Series [11] can be described thus: Absorptive (A to B) permeability in 16HBE14o- cell layers. To be noted: human, pH 7.4.
[12] abbreviates: male, Wistar, rat, 90 min, pH 7.4.
[13] abbreviates: pH 7.4, Papp, Calu-3, apical to basolateral, 10 μM, pH 7.4, 2 h, mean ± SEM (n = 6, n = 36 for mannitol).
Where [14] appears, read: apparent first-order absorption rate constant = ln2/t1/2 abs, intratracheal instillation 100 μL, mean ± SD.

A word on the Log P: it is the decadic logarithm of the partition coefficient of the neutral form, usually between octanol and water. As a reminder, the half-life is the time in which the quantity being followed falls by half. Low values mean fast loss, high ones slow loss. As a reminder, the Papp is the rate of passage across a membrane or cell layer, normalised by area and donor concentration. Higher therefore signals ready permeation. Regarding `CC(C)(C)NCC(O)c1cc(O)cc(O)c1` (centres unmarked) [Terbutaline], the Ka in vivo in series [1] (ref [22]) was 0.06 ^(1) min^−1. Further, the “Log P” value in series [2] is 0.1. Besides, the “% transferred to the perfusate in 90 min” value in series [3] (setting [12]) was 52 ± 12%. In series [3] (male, Wistar, rat, pH 7.4), the KaIPL came out at 0.037 ± 0.006 min⁻¹. The same compound gave a half-life in series [4] of 19 ± 3 min. Besides, the results for the Papp at 2 h, 10 μM in [5] (setting [13]), in series [6] and in [7] were 7.3 ± 0.4 ×10⁻⁶ cm/s, 19.3 ± 2 ×10⁻⁶ cm/s and 13.8 ± 0.8 ×10⁻⁶ cm/s, respectively.

Turning to `COCCc1ccc(OCC(O)CNC(C)C)cc1` (centres unmarked) [Metoprolol], the “% transferred to the perfusate in 90 min” value in series [3] (setting [12]) was 65 ± 4%. Besides, the KaIPL in series [3] (male, Wistar, rat, pH 7.4) stood at 0.260 ± 0.050 min⁻¹. The half-life in series [4] stood at 3 ± 1 min. The apparent permeability (Papp) at 2 h, 10 μM in series [5] (setting [13]) is 10.3 ×10⁻⁶ cm/s; in [6] it was 24.5 ± 2.5 ×10⁻⁶ cm/s; in series [7], 11.3 ± 0.7 ×10⁻⁶ cm/s.

With `COc1ccc(CC(C)NCC(O)c2ccc(O)c(NC=O)c2)cc1` (centres unmarked) [Formoterol], the Ka in vivo in [1] (ref [22]) was 0.19 ^(1) min^−1. The lipophilicity (Log P) in series [2] was 1.1. The KaIPL in [3] (setting [14]) came to 0.023 ± 0.002 min⁻¹. In addition, the “% transferred to the perfusate in 90 min” value in series [3] (cumulative fraction of administered dose recovered in perfusate at 90 min, mean ± SD) is given as 46 ± 7%. The half-life in [4] (100 μL) came out at 30 ± 2 min. This compound displayed a Papp at 2 h, 10 μM in [5] (pH 7.4) of 6.4 ± 0.3 ×10⁻⁶ cm/s.

For `CC(C)NCC(O)COc1cccc2ccccc12` (centres unmarked) [Propranolol], the “% transferred to the perfusate in 90 min” value in series [3] (setting [12]) was 47 ± 9%. The same compound yielded a KaIPL in [3] (male, Wistar, rat, pH 7.4) of 0.098 ± 0.016 min⁻¹. The compound also came in with a half-life in [4] (100 μL) of 7 ± 1 min. In addition, the apparent permeability coefficient (Papp) at 2 h, 10 μM in series [5] (setting [13]) came out at 7 ± 0.4 ×10⁻⁶ cm/s; in [6], 17.3 ± 0.8 ×10⁻⁶ cm/s; in series [7], 16.8 ± 3 ×10⁻⁶ cm/s.

As for Dextran 10 K, the apparent permeability (Papp) in series [8] is 1 ± 0.1 ×10⁻⁶ cm/s; in series [9], 0.2 ± 0.0 10^−6 cm/s; in [10] (apical to basolateral, 10 μM, pH 7.4, 2 h, mean ± SD (n = 3, n = 18 for mannitol)) it was 0.7 ± 0.1 10^−6 cm/s. The Ka in vivo in series [1] (ref [23]) was 0.00007 ^(2) min^−1. This compound showed a KaIPL in series [3] of 0.017 ± 0.002 min⁻¹. The same compound yielded a t1/2 abs in series [3] (rat) of 41 ± 6 min.

Consider `CN(C)CCCN1c2ccccc2CCc2ccccc21` [Imipramine], for which, in [1] (ref [22]), the Ka in vivo is listed as 0.53 ^(1) min^−1. In addition, in series [3] (setting [14]), the KaIPL worked out at 0.071 ± 0.021 min⁻¹. In addition, in [3] (setting [12]), the “% transferred to the perfusate in 90 min” value turned out to be 58 ± 9%.

Turning to `OC[C@@H](O)[C@@H](O)[C@H](O)[C@H](O)CO` [Mannitol], the Ka in vivo in series [1] (ref [24]) is reported as 0.011 ^(3) min^−1. Also, the Papp at 2 h, 10 μM amounted to 3.7 ± 0.5 ×10⁻⁶ cm/s in series [11]; 0.5 ± 0.1 ×10⁻⁶ cm/s in series [5] (setting [13]); 0.48 ± 0.06 ×10⁻⁶ cm/s in series [5] (pH 7.4, Papp, Calu-3, as stated in text); 1.6 ± 0.5 ×10⁻⁶ cm/s in series [7]. Further, in series [3] (setting [12]), the “% transferred to the perfusate in 90 min” value is recorded as 51 ± 4%. Moreover, in series [3] (male, Wistar, rat, pH 7.4), the KaIPL is 0.029 ± 0.005 min⁻¹. This compound also showed a half-life in series [4] of 25 ± 5 min. Besides, in [10], the apparent permeability coefficient (Papp) is recorded as 1.6 ± 0.5 x 10^−6, cm s^−1.
